In US10570184B2, “GLP-1/glucagon receptor co-agonists for medical use” (Novo Nordisk A/S, priority 2014, dated 2020):
Residues, ends and D or L forms follow the SMILES beside them.

Legend:
[1] = molecular target: T1, human GLP-1 receptor (Homo sapiens, UniProt P43220); test: Assay (I)(a) GLP-1 receptor activation, CRE luciferase reporter gene assay in BHK cells; type: cell-based; settings: without presence of serum albumin; read-out: GLP-1R EC50 (pM) [Assay (I)(a)]
T1 construct: expressed in transfected cells; host or cells: membranes of BHK cells (parent BHKTS13), clone FCW467-12A
Summary of the method: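 Stable BHK clone expressing human GLP-1 receptor with CRE-driven firefly luciferase, 5×10EE3 cells/well in medium with 2% ovalbumin and 0.2% Pluronic F-68. Compounds at 1×10EE-13 to 1×10EE-6 M final, 3 h at 37° C.; luminescence read, EC50 (pM) from four-parameter fit.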

[2] = molecular target: T2, human glucagon receptor (Homo sapiens, UniProt P47871); test: Assay (I)(b) glucagon receptor activation, CRE luciferase reporter gene assay in BHK cells; type: cell-based; settings: without presence of serum albumin; read-out: GlucagonR EC50 (pM), [Assay (I)(b)]
T2 construct: expressed in transfected cells; host or cells: membranes of BHK cells, clone BHK hGCGR A3*25
Description: The purpose of this example was to test the activity or potency, of the glucagon derivatives of the invention, in vitro. The in vitro potency is the measure of human GLP-1 receptor (GLP-1R) or glucagon receptor (glucagonR) activation, respectively, in a whole cell assay. In vitro potency was determined by measuring the response of human GLP-1 or glucagon receptor, respectively, in a reporter gene assay. The assay was performed in a stably transfected BHK cell line that expresses either the human GLP-1 receptor or the human glucagon receptor and contains the DNA for the cAMP response element (CRE) coupled to a promoter and the gene for firefly luciferase (CRE luciferase). […] When assay incubation was completed, the luciferase substrate (luciferin) was added and the enzyme converted luciferin to oxyluciferin and produces bioluminescence. The luminescence was measured as the readout for the assay. The cells used in this assay (clone pLJ6′-4-25) were BHK cells with BHK570 as a parent cell line expressing the CRE luciferase gene (clone BHK/KZ10-20-48) and were established by further transfection with the human glucagon receptor (clone pLJ6′ in pHZ-1 vector). The cells were cultured at 5% CO2 in DMEM medium with 10% FBS, 1×GlutaMAX, 1 mg/ml G418, 240 nM MTX (methotrexate) and 1% pen/strep (penicillin/streptomycin). They were aliquoted and stored in liquid nitrogen. Before each assay, an aliquot was taken up and washed three times in PBS before being suspended at the desired concentration in assay medium. For 96-well plates the suspension was made to give a final concentration of 5×10EE3 cells/well. The following chemicals were used in the assay: Pluronic F-68 (10%) (Gibco 2404), ovalbumin (Sigma A5503), DMEM w/o phenol red (Gibco 11880-028), 1 M Hepes (Gibco 15630), Glutamax 100× (Gibco 35050) and steadylite plus (PerkinElmer 6016757). Assay Medium consisted of DMEM w/o phenol red, 10 mM Hepes, 1× GlutaMAX, 2% Ovalbumin and 0.2% Pluronic F-68. Cell stocks were thawed in a 37° C. water bath. Cells were washed three times in PBS. The cells were counted and adjusted to 5×10EE3 cells/50 μl (1×10EE5 cells/ml) in Assay Medium. A 50 μl aliquot of cells was transferred to each well in the assay plate. Stocks of the test compounds and reference compounds were diluted to a concentration of […] in Assay Medium. Compounds were diluted 10-fold to give the following concentrations: 2×10EE-6 M, 2×10EE-7 M, 2×10EE-8 M; 2×10EE-9 M, 2×10EE-10 M, 2×10EE-11 M, 2×10EE-12 M and 2×10EE-13 M. For each compound a blank assay medium control was also included. A 50 μl aliquot of compound or blank was transferred from the dilution plate to the assay plate. Compounds were tested at the following final concentrations: 1×10EE-6 M, 1×10EE-7 M, 1×10EE-8 M; 1×10EE-9 M, 1×10EE-10 M, 1×10EE-11 M and 1×10EE-12 M and 1×10EE-13 M. The assay plate was incubated for 3 h in a 5% CO2 incubator at 37° C. The assay plate was removed from the incubator and allowed to stand at room temperature for 15 min. A 100 μl aliquot of steadylite plus reagent was added to each well of the assay plate (reagent is light sensitive). Each assay plate was covered with aluminum foil to protect it from light and shaken for 30 min at room temperature. Each assay plate was read in a Perkin Elmer TopCount NXT instrument. The data from the TopCount instrument was transferred to GraphPad Prism software. The software performed a non-linear regression (log(agonist) vs response-Variable slope (four parameter)). EC50 values were calculated by the software and reported in pM.

T1 sequence (P43220 24-463): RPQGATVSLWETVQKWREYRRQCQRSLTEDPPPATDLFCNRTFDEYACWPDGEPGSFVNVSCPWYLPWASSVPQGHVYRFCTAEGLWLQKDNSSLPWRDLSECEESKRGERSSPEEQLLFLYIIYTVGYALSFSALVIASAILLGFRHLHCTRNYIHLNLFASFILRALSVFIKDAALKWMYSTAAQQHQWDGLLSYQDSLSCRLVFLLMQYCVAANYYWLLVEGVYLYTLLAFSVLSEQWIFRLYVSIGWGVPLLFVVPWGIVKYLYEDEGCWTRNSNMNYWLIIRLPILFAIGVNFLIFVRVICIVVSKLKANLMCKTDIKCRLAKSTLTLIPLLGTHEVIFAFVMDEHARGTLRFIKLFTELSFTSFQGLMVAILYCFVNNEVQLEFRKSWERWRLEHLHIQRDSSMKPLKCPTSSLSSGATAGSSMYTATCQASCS
T2 sequence (P47871 26-477): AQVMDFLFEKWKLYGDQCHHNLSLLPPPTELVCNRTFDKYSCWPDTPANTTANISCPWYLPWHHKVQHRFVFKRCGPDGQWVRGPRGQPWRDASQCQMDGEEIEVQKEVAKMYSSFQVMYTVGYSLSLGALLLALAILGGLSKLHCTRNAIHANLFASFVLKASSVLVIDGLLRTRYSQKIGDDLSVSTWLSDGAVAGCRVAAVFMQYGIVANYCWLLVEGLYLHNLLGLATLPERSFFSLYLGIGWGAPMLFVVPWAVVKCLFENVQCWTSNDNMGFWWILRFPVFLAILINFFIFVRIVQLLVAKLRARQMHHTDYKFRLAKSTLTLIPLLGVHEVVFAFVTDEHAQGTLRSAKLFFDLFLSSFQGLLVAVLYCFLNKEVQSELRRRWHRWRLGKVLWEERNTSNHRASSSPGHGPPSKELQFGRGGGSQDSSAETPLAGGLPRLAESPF

EC50 [1]: 4 pM
EC50 [2]: 7 pM
Structure (SMILES): CC[C@H](C)[C@H](NC(=O)[C@H](CC(C)C)NC(=O)[C@H](Cc1c[nH]c2ccccc12)NC(=O)[C@H](CCC(N)=O)NC(=O)[C@@H](NC(=O)[C@H](Cc1ccccc1)NC(=O)[C@H](CC(=O)O)NC(=O)[C@H](CCCNC(=N)N)NC(=O)[C@H](C)NC(=O)[C@H](CCCNC(=N)N)NC(=O)[C@H](CCCNC(=N)N)NC(=O)[C@H](C)NC(=O)[C@H](CC(=O)O)NC(=O)[C@H](CC(C)C)NC(=O)[C@H](Cc1ccc(O)cc1)NC(=O)[C@H](CCCCN)NC(=O)[C@H](CO)NC(=O)[C@H](CC(C)C)NC(=O)[C@H](CC(=O)O)NC(=O)[C@H](CO)NC(=O)[C@@H](NC(=O)[C@H](Cc1ccccc1)NC(=O)[C@@H](NC(=O)CNC(=O)[C@H](CCC(N)=O)NC(=O)C(C)(C)NC(=O)[C@@H](N)Cc1c[nH]cn1)[C@@H](C)O)[C@@H](C)O)C(C)C)C(=O)N[C@@H](CCCCNC(=O)CC[C@H](NC(=O)CC[C@H](NC(=O)CC[C@H](NC(=O)CCCCCCCCCCCCCCCCC(=O)O)C(=O)O)C(=O)O)C(=O)O)C(=O)N[C@H](C(N)=O)[C@@H](C)O [Chem. 15, N^ε28-[(4S)-4-carboxy-4-[[(4S)-4-carboxy-4-[[(4S)-4-carboxy-4-(17-carboxyheptadecanoylamino)butanoyl]amino]butanoyl]amino]butanoyl]-[Aib2,Leu10,Ala16,Arg20,Ile27,Lys28]-Glucagon amide] (HELM PEPTIDE1{H.[Aib].Q.G.T.F.T.S.D.L.S.K.Y.L.D.A.R.R.A.R.D.F.V.Q.W.L.I.K.T.[am]}|PEPTIDE2{[O=C(O)CCCCCCCCCCCCCCCCC(=O)[*:2]].[gGlu].[gGlu].[gGlu]}$PEPTIDE1,PEPTIDE2,28:R3-4:R2$$$V2.0)
